These results are taken from patent publication US8575186B2, “Epiminocycloalkyl[b] indole derivatives as serotonin sub-type 6 (5-HT6) modulators and uses thereof” (Albany Molecular Research, Inc., priority 2009, dated 2013).

One data set addresses human 5-HT6 receptor (Homo sapiens (Human), UniProt P50406). The data set is described as follows: radioligand binding assay (SPA format), [N-methyl-3H]-LSD. The settings on record: read-out: human 5HT6 Ki, human 5-HT6 receptor membranes, 10 nM [3H]-LSD.
The target in another data set is 5HT6 receptor (Rattus norvegicus (Rat), UniProt P31388). The data set is described as follows: ex vivo receptor occupancy measurements. Format: in vivo. The settings on record: oral dosing at 30 mg/kg, Sprague-Dawley rats. On the procedure: This table illustrates representative compounds tested for 5HT6 affinity in the human binding assay. […] Example 158 had 42% occupancy of the 5HT6 receptor after oral dosing at 30 mg/kg using ex vivo receptor occupancy measurements in Sprague-Dawley rats.
Chain of 5HT6 receptor (P31388 whole entry): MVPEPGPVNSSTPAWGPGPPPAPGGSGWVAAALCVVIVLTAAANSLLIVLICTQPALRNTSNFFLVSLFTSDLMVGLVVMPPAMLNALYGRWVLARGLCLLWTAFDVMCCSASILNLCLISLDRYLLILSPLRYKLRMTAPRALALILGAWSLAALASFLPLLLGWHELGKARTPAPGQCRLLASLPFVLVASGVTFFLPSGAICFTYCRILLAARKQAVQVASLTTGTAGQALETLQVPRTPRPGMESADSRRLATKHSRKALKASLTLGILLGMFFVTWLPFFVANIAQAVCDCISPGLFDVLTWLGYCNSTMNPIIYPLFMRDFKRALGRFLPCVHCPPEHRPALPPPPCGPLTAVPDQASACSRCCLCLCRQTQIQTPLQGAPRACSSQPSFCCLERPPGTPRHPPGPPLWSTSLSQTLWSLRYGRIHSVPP

Where two headings read alike, the source gives them in different places.

Chain of human 5-HT6 receptor (P50406 whole entry): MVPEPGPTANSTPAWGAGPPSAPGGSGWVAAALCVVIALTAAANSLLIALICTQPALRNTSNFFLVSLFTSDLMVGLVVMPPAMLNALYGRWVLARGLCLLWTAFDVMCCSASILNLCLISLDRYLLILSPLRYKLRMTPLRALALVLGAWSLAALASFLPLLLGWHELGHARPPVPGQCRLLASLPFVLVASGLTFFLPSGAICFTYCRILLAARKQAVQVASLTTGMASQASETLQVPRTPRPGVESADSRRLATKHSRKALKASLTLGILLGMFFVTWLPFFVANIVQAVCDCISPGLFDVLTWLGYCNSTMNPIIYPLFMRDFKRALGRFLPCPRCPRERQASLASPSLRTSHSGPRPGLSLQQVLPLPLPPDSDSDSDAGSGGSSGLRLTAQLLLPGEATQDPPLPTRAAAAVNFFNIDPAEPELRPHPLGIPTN

On to `Cc1cc(S(=O)(=O)c2ccccc2)cc2c3c(n(C)c12)CC1CCC3N1.Cl` (stereo not drawn) [Example 71, 2-Phenylsulfonyl-4,5-dimethyl-5,6,7,8,9,10-hexahydro-7,10-epiminocyclohepta[b]indole hydrochloride], for which the melting point (usually the temperature of the solid-liquid transition) lay within 244 to 248 °C. The Ki (commonly the equilibrium dissociation constant of an inhibitor or competing ligand from its target) at human 5-HT6 receptor came to 3.3 nM.
For `Cc1cc(S(=O)(=O)c2cccc(C(F)(F)F)c2)cc2c3c(n(C)c12)CC1CCC3N1.Cl` (stereo not drawn) [Example 75, 2-(3-Trifluoromethyl-phenyl)sulfonyl-4,5-dimethyl-5,6,7,8,9,10-hexahydro-7,10-epiminocyclohepta[b]indole hydrochloride] the same measures were 227 to 229 °C and 3.6 nM.
`Cc1cc(S(=O)(=O)c2cccc(OC(F)(F)F)c2)cc2c3c(n(C)c12)CC1CCC3N1.Cl` (stereo not drawn) [Example 76, 2-(3-Trifluoromethoxy-phenyl)sulfonyl-4,5-dimethyl-5,6,7,8,9,10-hexahydro-7,10-epiminocyclohepta[b]indole hydrochloride] had a melting point of 220 to 222 °C. In addition, the Ki at human 5-HT6 receptor was found to be 6.9 nM.
Take `Cc1cc(S(=O)(=O)c2ccc(N)cc2)cc2c3c(n(C)c12)CC1CCC3N1.Cl` (stereo not drawn) [Example 77, 2-(4-Amino-phenyl)sulfonyl-4,5-dimethyl-5,6,7,8,9,10-hexahydro-7,10-epiminocyclohepta[b]indole hydrochloride]: the melting point is 244 to 246 °C. For the same molecule, the inhibition constant Ki on human 5-HT6 receptor worked out at 4.9 nM.
`Cc1cc(S(=O)(=O)c2cncnc2)cc2c3c(n(C)c12)CC1CCC3N1.Cl` (stereo not drawn) [Example 78, 2-(5-Pyrimidine)sulfonyl-4,5-dimethyl-5,6,7,8,9,10-hexahydro-7,10-epiminocyclohepta[b]indole] came in with a melting point of 226 to 228 °C. Also, on human 5-HT6 receptor, the Ki is 794 nM.
The corresponding values for `Cl.Cn1c2c(c3cc(S(=O)(=O)c4ccccc4)cc(F)c31)C1CCC(C2)N1` (stereo not drawn) [Example 81, 2-(Phenylsulfonyl)-4-fluoro-5-methyl-5,6,7,8,9,10-hexahydro-7,10-epiminocyclohepta[b]indole hydrochloride] are 251 to 256 °C (dec.) and 13 nM.
For `Cl.Cn1c2c(c3cc(S(=O)(=O)c4ccccc4)cc(Cl)c31)C1CCC(C2)N1` (stereo not drawn) [Example 82, 2-Phenylsulfonyl-4-chloro-5-methyl-5,6,7,8,9,10-hexahydro-7,10-epiminocyclohepta[b]indole hydrochloride] the same measures were 258 to 264 °C (dec.) and 22 nM.
For the molecule `CCOc1cc(S(=O)(=O)c2ccccc2)cc2c3c(n(C)c12)CC1CCC3N1.Cl` (stereo not drawn) [Example 84, 2-Phenylsulfonyl-4-ethoxy-5-methyl-5,6,7,8,9,10-hexahydro-7,10-epiminocyclohepta[b]indole hydrochloride], the melting point was 182 to 184 °C. The inhibitory constant (Ki) at human 5-HT6 receptor (hydrochloride) was found to be 1 nM.
With `Cl.Cn1c2c(c3cc(S(=O)(=O)c4ccccc4)cc(OCc4ccccc4)c31)C1CCC(C2)N1` (stereo not drawn) [Example 86, 2-Phenylsulfonyl-4-benzyloxy-5-methyl-5,6,7,8,9,10-hexahydro-7,10-epiminocyclohepta[b]indole hydrochloride], the melting point was in the range of 178 to 180 °C. The Ki on human 5-HT6 receptor is 14 nM.
In the case of `CC(C)n1c2c(c3cc(S(=O)(=O)c4ccccc4)ccc31)C1CCC(C2)N1.Cl` (stereo not drawn) [Example 87, 2-Phenylsulfonyl-5-isopropyl-5,6,7,8,9,10-hexahydro-7,10-epiminocyclohepta[b]indole hydrochloride], the melting point fell in the range of 260 to 265 °C. For the same molecule, the Ki at human 5-HT6 receptor (hydrochloride) came to 350 nM.
For the molecule `Cl.O=S(=O)(c1ccccc1)c1ccc2c(c1)c1c(n2-c2ccccc2)CC2CCC1N2` (stereo not drawn) [Example 88, 2-Phenylsulfonyl-5-phenyl-5,6,7,8,9,10-hexahydro-7,10-epiminocyclohepta[b]indole hydrochloride], the melting point was in the range of 195 to 200 °C. Besides, the inhibition constant Ki at human 5-HT6 receptor worked out at 350 nM.
For `Cl.O=S(=O)(c1ccccc1)c1ccc2c(c1)c1c(n2CCO)CC2CCC1N2` (stereo not drawn) [Example 89, 2-Phenylsulfonyl-5-(2-hydroxy)ethyl-5,6,7,8,9,10-hexahydro-7,10-epiminocyclohepta[b]indole hydrochloride] the same measures were 185 to 190 °C and 432 nM.
The corresponding values for `CCn1c2c(c3cc(S(=O)(=O)c4ccccc4)ccc31)C1CCC(C2)N1.Cl` (stereo not drawn) [Example 90, 2-Phenylsulfonyl-5-ethyl-5,6,7,8,9,10-hexahydro-7,10-epiminocyclohepta[b]indole hydrochloride] are 200 to 204 °C (dec.) and 52 nM.
The corresponding values for `Cl.Cn1c2c(c3ccc(S(=O)(=O)c4ccccc4)cc31)C1CCC(C2)N1` (stereo not drawn) [Example 91, 3-Phenylsulfonyl-5-methyl-5,6,7,8,9,10-hexahydro-7,10-epiminocyclohepta[b]indole hydrochloride] are 252 to 256 °C and 115 nM.
In turn, `Cn1c2c(c3cc(S(=O)(=O)c4cccc(Cl)c4)ccc31)C1CCC(C2)N1` (stereo not drawn) [Example 158] yielded a receptor occupancy at 30 mg/kg on 5HT6 receptor of 42%. Moreover, at human 5-HT6 receptor, the Ki amounted to 1.9 nM.
